Tests used:
[1] = tested on: JEV T1P1; test: Viral plaque test, JEV T1P1 replication in TE671 cells; format: cell-based, Japanese encephalitis virus; details: treated for 36 or 48 hours
Protocol: BHK-21 cells and/or TE671cells were separately cultured in a 24-well culture plate, with an initial density of 3×10^4 per well, and with 1 ml of 2% FBS-containing MEM medium per well. The cells were incubated in an incubator (37° C., 5% CO2) overnight, and the medium was removed until the cells adhered to the plate. Then, fresh 2% FBS-containing MEM medium was simultaneously added into each well of the culture plate. The cells were infected with a JEV T1P1 virus strain, wherein the amount of JEV T1P1 used to infect BHK-21 cells was a multiplicity of infection (M.O.I.)=0.1, and the amount of JEV T1P1 used to infect TE671 cells was M.O.I.=0.05. Different concentrations of compound 1 (final concentrations were 0, 2.5, 25 and 125 μM, respectively) were added into different wells. The culture plate was placed into an incubator (37° C., 5% CO2) and maintained therein. […]
BHK-21 cells were cultured in a 6-well culture plate at an initial density of 3×10^5 per well with 2 ml of 2% FBS-containing MEM medium per well. […] The cells were washed with clear water, and then the viral plaques were counted to calculate the virus titer.

[2] = tested on: JAK-STAT, AkT-mTOR and ERK-CREB signaling pathway-related proteins; test: Western blot of signaling pathway phosphorylation in JEV T1P1-infected TE671 cells; format: cell-based; details: 36 hours, 2.5-250 μM
Protocol: TE671cells were cultured in a 6-well culture plate at an initial density of 3×10^5 per well with 2 ml of 2% FBS-containing MEM medium per well. The cells were incubated in an incubator (37° C., 5% CO2) overnight. The medium was removed until the cells adhered to the plate. 1 ml of fresh 2% FBS-containing MEM medium was simultaneously added into each well. The cells were infected with JEV T1P1virus strain (M.O.I.=0.05). Different concentrations of compound 1 (the final concentrations were 0, 2.5, 25, 125 and 250 μM, respectively) were added into different wells. The cells were incubated in an incubator (37° C., 5% CO2) for 36 hours. The supernatant was removed, and the TE671 cells were washed with PBS. The PBS was removed, and 150 μl Trypsin-EDTA was added into each well. The cells were incubated in an incubator at 37° C. for 3 minutes. Then, 1 ml MEM medium was added into each well to neutralize EDTA, and the cells were separately collected into 15 ml tubes and precipitated by centrifugation (2000 rpm, 3 minutes). The supernatants were removed. The cells were resuspended with 1 ml PBS per tube, transferred into 1.5 ml microtubes respectively, and precipitated by centrifugation (2000 rpm, 3 minutes). The supernatants were removed and 100 μl radioimmunoprecipitation buffer (RIPA buffer) was added into each well. […]
The above protein samples were analyzed by protein electrophoresis. […]

[3] = tested on: EV71; test: Enterovirus infection-induced cytopathic effect / cell survival in RD cells with interferon; format: cell-based, enterovirus type 71; details: for Cell survival rate: 36 hours
Protocol: The RD cells were cultured in a 24-well culture plate at an initial density of 3×10^4 per well with 1 ml of 2% FBS-containing MEM medium per well. The cells were incubated in an incubator (37° C., 5% CO2) overnight. The medium was removed until the cells adhered to the plate. 1 ml of fresh 2% FBS-containing MEM medium was simultaneously added into each well. The RD cells were infected with an EV71 virus strain (M.O.I.=0.1). […] The RD cells were incubated in an incubator (37° C., 5% CO2) for 36 hours, and then their morphology was observed by photography. In addition, 200 μl of culture medium supernatant was collected from each well and stored at −80° C. for conducting the viral plaque test of Example 12.

SMILES: CCOC(=O)C1=C(Nc2cc(C)cc(C)c2)OCC1=O [Compound 1, ethyl 2-(3′,5′-dimethylanilino)-4-oxo-4,5-dihydrofuran-3-carboxylate]
- replication of JEV T1P1 (virus titer) [1]: significantly decreased
- phosphorylation levels of JAK-STAT, AkT-mTOR and ERK-CREB signaling pathway-related proteins [2]: increased in a concentration dependent manner
- Cell survival rate ([3]; EV71 M.O.I.=0.1, IFN-β 100 unit/ml + Compound 1 2.5 μM): 46.9%
- Cell survival rate ([3]; EV71 M.O.I.=0.1, IFN-β 100 unit/ml + Compound 1 25 μM): 55.86%
- Cell survival rate ([3]; EV71 M.O.I.=0.1, IFN-β 100 unit/ml + Compound 1 125 μM): 83.3%
- EV71-induced cytopathic effect ([3]; infected 36 hours, combination of compound 1 and 100 units/ml of IFN-β): effectively inhibited
- Cell survival rate ([3]; no EV71, no IFN-β, Compound 1 125 μM): 86.85%
